Results from ChEMBL document CHEMBL5724914, “Linking interpersonal differences in gut microbiota composition and drug biotransformation activity” (2024).

Key:
[1] = human gut metagenome, 24 h, 2 µM
[2] = human gut metagenome, 24 h, 2 µM; remark: listed apart in the source
[3] = (§1) The drug is tested on Z-001 corresponding to mouse gut metagenome with ENA study accession number: PRJEB37062 and ENA sample accession number: ERS12561801 for biotransformation under anaerobic condition. The drug concentrations were measured over 9 timepoints collected between 0 and 24 hours of incubation by liquid-chromatography-coupled mass spectrometry (LC–MS); settings: 2 µM
[4] = human gut metagenome, 24 h, 2 µM; remark: listed apart in the source
[5] = human gut metagenome, 24 h, 2 µM; remark: listed apart in the source
[6] = as §1, with “Z-014” for “Z-001”, “rat” for “mouse”, “ERS12561814” for “ERS12561801”; settings: 2 µM
[7] = as §1, with “WLS-007” for “Z-001”, “human” for “mouse”, “ERS12561742” for “ERS12561801”; settings: 2 µM
[8] = human gut metagenome, 24 h, 2 µM; remark: listed apart in the source
[9] = as §1, with “WLS-170” for “Z-001”, “human” for “mouse”, “ERS12561762” for “ERS12561801”; settings: 2 µM
[10] = as §1, with “Z-004” for “Z-001”, “to” for “to mouse gut”, “ERS12561804” for “ERS12561801”; settings: 2 µM
[11] = as §1, with “WLS-027” for “Z-001”, “human” for “mouse”, “ERS12561744” for “ERS12561801”; settings: 2 µM
[12] = human gut metagenome, 24 h, 2 µM; remark: listed apart in the source
[13] = human gut metagenome, 24 h, 2 µM; remark: listed apart in the source
[14] = human gut metagenome, 24 h, 2 µM; remark: listed apart in the source
[15] = as §1, with “Z-020” for “Z-001”, “rabbit” for “mouse”, “ERS12561819” for “ERS12561801”; settings: 2 µM
[16] = human gut metagenome, 24 h, 2 µM; remark: listed apart in the source
[17] = as §1, with “Z-022” for “Z-001”, “ERS12561821” for “ERS12561801”; settings: 2 µM
[18] = as §1, with “Z-026” for “Z-001”, “to” for “to mouse gut”, “ERS12561825” for “ERS12561801”; settings: 2 µM
[19] = as §1, with “Z-025” for “Z-001”, “rabbit” for “mouse”, “ERS12561824” for “ERS12561801”; settings: 2 µM

Measured: Bacterial Biotransformation
Also: call rule not given here.

CCC1(c2ccc(N)cc2)CCC(=O)NC1=O (configuration not stated) [AMINOGLUTETHIMIDE]
not listed: [17] | [18] | [19]
Compound NOT metabolized: all other assays above

OC(CCN1CCCCC1)(c1ccccc1)C1CC2C=CC1C2 (configuration not stated) [BIPERIDEN]
Compound NOT metabolized: [1] | [2] | [4] | [5] | [7] | [11] | [13] | [14]
Compound metabolized: [8] | [9] | [12] | [16]

CC(=O)O[C@]1(C(C)=O)CC[C@H]2[C@@H]3C=C(Cl)C4=CC(=O)[C@@H]5C[C@@H]5[C@]4(C)[C@H]3CC[C@@]21C [CYPROTERONE ACETATE]
not listed: [6] | [10] | [15] | [17] | [18] | [19]
Compound metabolized: all other assays above

CN1C[C@H](C(=O)N[C@]2(C)O[C@@]3(O)[C@@H]4CCCN4C(=O)[C@H](Cc4ccccc4)N3C2=O)C=C2c3cccc4[nH]cc(c34)C[C@H]21.CN1C[C@H](C(=O)N[C@]2(C)O[C@@]3(O)[C@@H]4CCCN4C(=O)[C@H](Cc4ccccc4)N3C2=O)C=C2c3cccc4[nH]cc(c34)C[C@H]21.O=C(O)C(O)C(O)C(=O)O [ERGOTAMINE TARTRATE]
Compound NOT metabolized: [1] | [4]
not listed: [3] | [6] | [10] | [15] | [17] | [18] | [19]
Compound metabolized: all other assays above

O=C1[C@H](CC[C@H](O)c2ccc(F)cc2)[C@@H](c2ccc(O)cc2)N1c1ccc(F)cc1 [EZETIMIBE]
Compound metabolized: [2] | [4] | [7] | [9] | [12]
Compound NOT metabolized: all other assays above

COC(=O)C1=C(C)NC(C)=C(C(=O)OC(C)C)C1c1cccc2nonc12 (configuration not stated) [ISRADIPINE]
Compound NOT metabolized: [1] | [3] | [14]
not listed: [6] | [15] | [17] | [18] | [19]
Compound metabolized: all other assays above

CN(C(=O)CN(CCO)CC(=O)N(C)C(C)(C)Cc1ccccc1)C(C)(C)Cc1ccccc1 [OXETHAZAINE]
Compound NOT metabolized: [1] | [7]
not listed: [3] | [6] | [10] | [15] | [17] | [18] | [19]
Compound metabolized: all other assays above

CN1CCN(CC/C=C2/c3ccccc3Sc3ccc(S(=O)(=O)N(C)C)cc32)CC1 [THIOTHIXENE]
Compound NOT metabolized: [1] | [7] | [13] | [16]
Compound metabolized: [2] | [4] | [5] | [8] | [9] | [11] | [12] | [14]

CS(=O)(=O)O.O.O.O.O=C1Cc2cc(CCN3CCN(c4nsc5ccccc45)CC3)c(Cl)cc2N1 [ZIPRASIDONE MESYLATE]
Compound metabolized: [5] | [8] | [9] | [11] | [12] | [16]
Compound NOT metabolized: [1] | [2] | [4] | [7] | [13] | [14]
